Assay results published in PubChem BioAssay (NCI).
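Cultured in 96-well plates, cells were exposed to test compound for 48 hours across five concentrations. At the GI50, growth is halved. TGI: total growth inhibition.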

Key:
Assay in all cases: NCI-60 cell line screen, 48 h
UACC-62 melanoma = system: UACC-62 melanoma
HL-60(TB) leukemia = system: HL-60(TB) leukemia
LOX IMVI melanoma = system: LOX IMVI melanoma
RPMI-8226 leukemia = system: RPMI-8226 leukemia
NCI-H23 lung = system: NCI-H23 lung
SW-620 colon = system: SW-620 colon
U251 CNS = system: U251 CNS
RXF 393 renal = system: RXF 393 renal
SK-MEL-5 melanoma = system: SK-MEL-5 melanoma
HS 578T breast = system: HS 578T breast
786-0 renal = system: 786-0 renal
SK-MEL-28 melanoma = system: SK-MEL-28 melanoma
SF-295 CNS = system: SF-295 CNS

| SMILES | TGI (UACC-62 melanoma) [µM] | TGI (HL-60(TB) leukemia) [µM] | TGI (LOX IMVI melanoma) [µM] | TGI (RPMI-8226 leukemia) [µM] | TGI (NCI-H23 lung) [µM] | TGI (SW-620 colon) [µM] | GI50 (U251 CNS) [µM] | TGI (RXF 393 renal) [µM] | TGI (SK-MEL-5 melanoma) [µM] | TGI (HS 578T breast) [µM] | TGI (786-0 renal) [µM] | TGI (U251 CNS) [µM] | TGI (SK-MEL-28 melanoma) [µM] | TGI (SF-295 CNS) [µM] | GI50 (HL-60(TB) leukemia) [µM] | GI50 (RXF 393 renal) [µM] | GI50 (RPMI-8226 leukemia) [µM] | GI50 (HS 578T breast) [µM] | GI50 (SW-620 colon) [µM] |
| --- | --- | --- | --- | --- | --- | --- | --- | --- | --- | --- | --- | --- | --- | --- | --- | --- | --- | --- | --- |
| CCOC(=O)Nc1cc2c(c(N)n1)N=C(c1ccccc1)[C@H](C)N2 | 21.2 | < 0.0001 | 17.7 | 22.4 | 0.0464 | > 100 | < 0.0001 |  |  |  |  |  |  |  |  |  |  |  |  |
| Nc1ccc(N=Nc2ccc(-c3ccc(O)cc3)cc2)c2ccc(S(=O)(=O)O)cc12 | > 100 | > 100 | > 100 | > 100 | > 100 | > 100 |  | > 100 | > 100 | > 100 | > 100 | > 100 | > 100 | > 100 |  |  |  |  |  |
| COc1cc(N/N=C/C#N)cc(OC)c1OC | > 10 | 5.64 | 3.24 | 5.68 | > 10 | > 10 |  | > 10 | > 10 | > 10 |  | > 10 | > 10 | > 10 |  |  |  |  |  |
| O=C(O)NCc1ccccc1 (tested in a mixture with another compound) | 37.2 | 48.9 | > 100 | 31.1 | > 100 | > 100 |  | > 75.5 | 33.4 | > 82.8 | > 100 | > 77.6 | > 100 | > 100 |  |  |  |  |  |
| CC(=O)OC/C=C/Cn1ncc(=O)[nH]c1=O |  | > 100 | > 100 | > 100 |  | > 100 |  | > 100 | > 100 | > 100 |  | > 100 | > 100 |  |  |  |  |  |  |
| CCCCCCCCCCCCCCCC(=O)OCC1CCCN2CCCCC12 (configuration not stated) | > 100 | > 100 | > 100 | > 100 | > 100 | > 100 |  | > 100 | > 100 | > 100 | > 100 | > 100 | > 100 | > 100 |  |  |  |  |  |
| Oc1c2c(c3c4c1N=CC=4CCN=3)-c1c(Br)cc(Br)cc1CCN2 | 2.77 | 4.09 | 4.06 | 17.5 | 3.88 | 6.03 |  | 20.2 | 3.38 |  |  | 12.2 | 21.8 | 11 |  |  |  |  |  |
| O=[N+]([O-])c1ccc2c(c1)Nc1c3ccccc3nc3cccc-2c13 | 18.1 | > 23.1 | 6.67 | > 39 | > 55.1 | 15.8 |  | 32.9 | 5.51 | > 100 | 7.36 | 18.6 | 24.8 | 6.98 |  |  |  |  |  |
| CC(C)OC(=O)C1=C(O)c2ccccc2S(=O)(=O)N1 | > 100 |  | > 100 |  | > 100 | > 100 |  |  | > 100 |  | > 100 | > 100 | > 100 | > 100 |  |  |  |  |  |
| Cc1cc2c(cc1C)[n+](=O)c(C#N)c(Cl)n2[O-] | 29.6 | 84.3 | 39.2 | 55.6 | 25.1 | 41.6 |  | 26.4 | 29 | > 100 |  | 70.9 | 42.5 | > 100 |  |  |  |  |  |
| CC[C@H](Nc1nc(N)nc(C)c1C#N)c1nc2cccc(NCc3ccc(C(=O)NO)cc3)c2c(=O)n1-c1ccccc1 |  | > 100 |  | 9.78 |  | 3.92 |  | 3.05 |  | 6.08 |  |  |  |  | 3.04 | 1.21 | 2.27 | 1.95 | 1.7 |
| Cc1ccc([N+](=O)[O-])cc1NC(=O)C(=O)C(C(=O)c1ccccc1F)C1OC(=O)c2ccccc21 (configuration not stated) | > 100 | > 100 | 90.3 | > 100 | > 100 | > 100 |  | 53.9 | > 100 |  |  | 43.6 | > 100 | > 100 |  |  |  |  |  |
| Cc1ccc(S(=O)(=O)N/N=c2\c(C)c(C3=NS(=O)(=O)c4cc(S(N)(=O)=O)c(Cl)cc4N3)oc3c(Cl)cc(Cl)cc23)cc1 | > 100 | > 100 | > 100 | > 100 | > 100 | 22.9 |  | > 100 | > 100 |  | > 100 | 67.9 | > 100 | > 100 |  |  |  |  |  |
| Cc1ccc(C[P+]2(c3ccccc3)CCCCC2)cc1 | 66.2 | 33.6 | > 100 | 46.8 | > 100 | > 100 |  | > 100 | 24.4 |  | > 100 | 42.4 | > 100 | > 100 |  |  |  |  |  |
| C=C1CC[C@@H](Br)C(C)(C)[C@]12CCC(C)(O)C(Cl)C2 (some centres not stated) | 41.4 | 42.2 | 35.2 | 40.2 | 64.4 | 27.2 |  | 34.2 | 35.7 |  |  | 29.7 | 40.2 | 43.1 |  |  |  |  |  |
| N=c1nc2n(cc1F)[C@@H]1O[C@H](CO)[C@@H](O)[C@@H]1O2 | > 100 | > 40.9 | > 100 | > 100 | > 55.8 | > 100 |  | > 56.2 | > 74.7 | > 100 | > 38.9 | > 91.9 | > 100 | > 100 |  |  |  |  |  |
| CC(=O)O[C@H]1CC[C@@]2(C)C(=CC[C@@H]3[C@@H]2CC[C@]2(C)Nc4c(cnn4S(C)(=O)=O)C[C@@H]32)C1 | > 100 | 71.3 |  | > 100 | > 100 |  |  | 92.2 | 30.6 | > 100 |  | > 100 | > 100 | > 100 |  |  |  |  |  |
| O=C1Nc2ccccc2S/C1=C\c1cccc(C(F)(F)F)c1 | > 100 | > 100 | > 100 | > 100 |  | > 100 |  | > 100 | > 100 | > 100 | > 100 | > 100 | > 100 | > 100 |  |  |  |  |  |
| O=C(N/C(=C\c1cccc([N+](=O)[O-])c1)c1nc2[nH]c(=S)[nH]c(=O)c2[nH]1)c1ccccc1 | > 100 | > 100 | > 100 | > 100 | > 100 | > 100 |  | > 100 | > 100 |  | > 100 | > 100 | > 100 | > 100 |  |  |  |  |  |
| NC(=S)Nc1cc(Cl)ccc1Cl | > 100 | > 100 | > 100 | > 100 | > 100 | > 100 |  | > 100 | > 100 |  |  | > 100 | > 100 | > 100 |  |  |  |  |  |
| O=C(O)CCSCc1ccc(I)cc1 | > 100 | > 100 | > 100 | > 100 | > 100 | > 100 |  | > 100 | > 100 | > 100 | > 100 | > 100 | > 100 | > 100 |  |  |  |  |  |
| O=C1Nc2ccccc2S/C1=C\c1ccccc1C(F)(F)F | > 100 | > 100 | > 100 | > 100 |  | > 100 |  | > 100 | > 100 | > 100 | > 100 | > 100 | > 100 | > 100 |  |  |  |  |  |
| CCC1CN2CCC1CC2 (configuration not stated) | > 100 | > 100 | > 100 | > 100 | > 100 | > 100 |  | > 100 | > 100 |  |  | > 100 | > 100 | > 100 |  |  |  |  |  |
